# According to paper PMC5053523, “In Vitro Antibacterial Activity of Rhodanine Derivatives against Pathogenic Clinical Isolates” (PLoS ONE, 2016):
# Where two headings read alike, the source gives them in different places.
# Experiments:
# [1] = system: vancomycin resistant enterococci (VRE) E. faecium; assay: Broth microdilution MIC/MBC, VRE E. faecium; assay type: cell-based; settings: for MIC: read-out: MIC
# [2] = system: Vancomycin Resistant Staphylococcus aureus (VRSA); assay: Broth microdilution MIC/MBC, VRSA; assay type: cell-based; settings: for MBC / MIC: VRSA
# B. cereus = assay: Broth microdilution MIC/MBC, B. cereus; assay type: cell-based; settings: Bacillus cereus; for MBC: read-out: MBC; for MIC: read-out: MIC
# Text: The broth microdilution technique was used, followed by subculturing on agar plates that were rhodanine—free.
# B. licheniformis = assay: Broth microdilution MIC/MBC, B. licheniformis; assay type: cell-based; settings: Bacillus licheniformis; for MBC: read-out: MBC; for MIC: read-out: MIC
# Bacillus Strains = assay: Broth microdilution MIC50/MIC90 and MIC range, Bacillus strains panel; assay type: cell-based, Bacillus spp.; settings: 10 Bacillus strains
# Text: The broth microdilution technique was used, followed by subculturing on agar plates that were rhodanine—free. […] The MICs reported represent the lowest concentration of each compound necessary to inhibit bacterial growth and the MBCs represent the lowest concentration required to reduce the initial bacterial inoculum by ≥ 99.9%.
# Clostridium difficile = assay: MIC against Clostridium difficile, anaerobic broth dilution; assay type: cell-based; settings: Clostridioides difficile
# Procedure, shortened: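 Clinical C. difficile isolates grown anaerobically 48 h at 37 °C, suspended to 0.5 McFarland and diluted 1:300 in pre-reduced supplemented Brain Heart Infusion broth. Compounds serially diluted; plates incubated anaerobically at 37 °C for 48 h. MIC = lowest concentration with no visible growth.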
# Mycobacterium smegmatis = assay: Broth microdilution MIC/MBC, Mycobacterium smegmatis; assay type: cell-based; settings: Mycolicibacterium smegmatis, ATCC14468, M. Smegmatis ATCC 14468
# Candida albicans = assay: MIC against Candida albicans; assay type: cell-based; settings: table prints none, read-out: MIC
# Acinetobacter baumannii = assay: MIC with/without sub-MIC colistin, Acinetobacter baumannii; assay type: cell-based
# Procedure, shortened: (§1)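 Compounds plus sub-inhibitory colistin or PMBN; MIC against Gram-negatives, with control antibiotics in parallel.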
# Escherichia coli O157:H7 [3] = assay: MIC with/without sub-MIC colistin, Escherichia coli O157:H7; assay type: cell-based
# Procedure, shortened: as §1
# Klebsiella pneumoniae = assay: MIC with/without sub-MIC colistin, Klebsiella pneumoniae; assay type: cell-based
# Procedure, shortened: as §1
# Escherichia coli O157:H7 [4] = assay: MIC with/without PMBN, Escherichia coli O157:H7; assay type: cell-based
# Procedure, shortened: as §1
# Escherichia coli Δ acrAB = assay: MIC against E. coli 1411 and AcrAB efflux pump deficient E. coli SM1411Δ acrAB; assay type: cell-based
# Procedure, shortened: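 Gram-negative MICs were determined for rhodanines alongside control antibiotics, each combined with sub-inhibitory colistin or PMBN. Further testing used the efflux-deficient E. coli SM1411ΔacrAB, missing the AcrAB multidrug pump.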
# [5] = E. faecium HM 968 Strain ERV102
# [6] = E. faecium NR31914 Strain E0120
# [7] = E. faecium Patient #1–1 NR-31903
# [8] = NRS201, B. cereus NRS 201 NR-2488
# [9] = NCIB9375, B. licheniformis Gibson 46 (NCIB 9375) NR-2494
# [10] = NRS712, B. licheniformis NRS 712 NR-2499
compound,measurement,setting,value
O=C(O)[C@H](Cc1ccccc1)N1C(=O)/C(=C/c2cccc(-c3ccccc3)c2)SC1=S [Rh 5],MBC,[1]; E. faecium E417 HM-965,> 64 µM
same,MIC,[1]; E. faecium E417 HM-965,8 µM
same,MBC,[1]; E. faecium E1071 NR-28978,> 64 µM
same,MIC,[1]; E. faecium E1071 NR-28978,16 µM
same,MBC,[1]; [5],64 µM
same,MIC,[1]; [5],16 µM
same,MBC,[1]; [6],> 64 µM
same,MIC,[1]; [6],16 µM
same,MBC,[1]; [7],64 µM
same,MIC,[1]; [7],8 µM
same,MIC50,"[2]; 15 VRSA strains, read-out: MIC 50",8 µM
same,MIC90,"[2]; 15 VRSA strains, read-out: MIC 90",8 µM
same,MBC,"[2]; VRSA 1, read-out: MBC",16 µM
same,MIC,"[2]; VRSA 1, read-out: MIC",8 µM
same,MBC,"[2]; VRSA 2, read-out: MBC",8 µM
same,MIC,"[2]; VRSA 2, read-out: MIC",8 µM
same,MBC,"[2]; VRSA 3a, read-out: MBC",16 µM
same,MIC,"[2]; VRSA 3a, read-out: MIC",8 µM
same,MBC,"[2]; VRSA 3b, read-out: MBC",16 µM
same,MIC,"[2]; VRSA 3b, read-out: MIC",8 µM
same,MBC,"[2]; VRSA 4, read-out: MBC",16 µM
same,MIC,"[2]; VRSA 4, read-out: MIC",8 µM
same,MBC,"[2]; VRSA 5, read-out: MBC",16 µM
same,MIC,"[2]; VRSA 5, read-out: MIC",8 µM
same,MBC,"[2]; VRSA 6, read-out: MBC",16 µM
same,MIC,"[2]; VRSA 6, read-out: MIC",8 µM
same,MBC,"[2]; VRSA 7, read-out: MBC",32 µM
same,MIC,"[2]; VRSA 7, read-out: MIC",8 µM
same,MBC,"[2]; VRSA 8, read-out: MBC",16 µM
same,MIC,"[2]; VRSA 8, read-out: MIC",8 µM
same,MBC,"[2]; VRSA 9, read-out: MBC",16 µM
same,MIC,"[2]; VRSA 9, read-out: MIC",16 µM
same,MBC,"[2]; VRSA 10, read-out: MBC",16 µM
same,MIC,"[2]; VRSA 10, read-out: MIC",8 µM
same,MBC,"[2]; VRSA 11a, read-out: MBC",16 µM
same,MIC,"[2]; VRSA 11a, read-out: MIC",8 µM
same,MBC,"[2]; VRSA 11b, read-out: MBC",16 µM
same,MIC,"[2]; VRSA 11b, read-out: MIC",8 µM
same,MBC,"[2]; VRSA 12, read-out: MBC",16 µM
same,MIC,"[2]; VRSA 12, read-out: MIC",8 µM
same,MBC,"[2]; VRSA 13, read-out: MBC",16 µM
same,MIC,"[2]; VRSA 13, read-out: MIC",8 µM
same,MBC,B. cereus; B. cereus BAG1O-2 NR-28582,4 µM
same,MIC,B. cereus; B. cereus BAG1O-2 NR-28582,4 µM
same,MBC,B. cereus; B. cereus BAG1X1-1 NR-28575,4 µM
same,MIC,B. cereus; B. cereus BAG1X1-1 NR-28575,4 µM
same,MBC,B. cereus; B. cereus BAG1X2-1 NR-28578,4 µM
same,MIC,B. cereus; B. cereus BAG1X2-1 NR-28578,4 µM
same,MBC,B. cereus; B. cereus G9241 NR-9564,8 µM
same,MIC,B. cereus; B. cereus G9241 NR-9564,8 µM
same,MBC,B. cereus; B. cereus VD014 NR-22141,8 µM
same,MIC,B. cereus; B. cereus VD014 NR-22141,4 µM
same,MBC,B. cereus; B. cereus VD115 NR-22148,4 µM
same,MIC,B. cereus; B. cereus VD115 NR-22148,4 µM
same,MBC,B. cereus; B. cereus VD148 NR-22150,4 µM
same,MIC,B. cereus; B. cereus VD148 NR-22150,4 µM
same,MBC,B. cereus; [8],4 µM
same,MIC,B. cereus; [8],4 µM
same,MBC,B. licheniformis; [9],8 µM
same,MIC,B. licheniformis; [9],8 µM
same,MBC,B. licheniformis; [10],8 µM
same,MIC,B. licheniformis; [10],8 µM
same,MIC50,Bacillus Strains,4 µM
same,MIC90,Bacillus Strains,8 µM
same,MIC,Clostridium difficile; C. difficile HM-88,4 µM
same,MIC,Clostridium difficile; C. difficile HM-745,4 µM
same,MIC,Clostridium difficile; C. difficile HM-746,2 µM
same,MIC,Clostridium difficile; C. difficile Isolate-1 NR-13427,4 µM
same,MIC,Clostridium difficile; C. difficile Toxigenic Strain P8 NR-32888,4 µM
same,MBC,Mycobacterium smegmatis; read-out: MBC,16 µM
same,MIC,Mycobacterium smegmatis; read-out: MIC,16 µM
same,MIC,"Candida albicans; ATCC10231, C. albicans ATCC 10231, unit from abstract",> 64 µM
same,MIC,"Candida albicans; C. albicans NR 29434, unit from abstract",> 64 µM
same,MIC,"Candida albicans; C. albicans NR 29435, unit from abstract",> 64 µM
same,MIC,"Candida albicans; C. albicans NR29437, unit from abstract",> 64 µM
same,MIC,"Candida albicans; C. albicans NR29438, unit from abstract",> 64 µM
same,MIC,"Candida albicans; C. albicans NR 29446, unit from abstract",> 64 µM
same,MIC,"Candida albicans; C. albicans NR 29448, unit from abstract",> 64 µM
same,MIC,"Candida albicans; C. albicans NR 29449, unit from abstract",> 64 µM
same,MIC,"Candida albicans; C. albicans NR 29453, unit from abstract",> 64 µM
same,MIC,"Candida albicans; C. albicans NR 294436, unit from abstract",> 64 µM
same,MIC,"Acinetobacter baumannii; Acinetobacter baumannii ATCC BAA747, colistin (+) […], read-out: MIC",>64 µM
same,MIC,"Acinetobacter baumannii; Acinetobacter baumannii ATCC BAA19606, colistin (+) […], read-out: MIC",>64 µM
same,MIC,"Acinetobacter baumannii; Acinetobacter baumannii, ATCCBAA747",> 128 µM
same,MIC,"Acinetobacter baumannii; Acinetobacter baumannii, ATCCBAA19606",> 128 µM
same,MIC,"Escherichia coli O157:H7 [3]; Escherichia coli O157:H7 ATCC 35150, colistin (+) […], read-out: MIC",>64 µM
same,MIC,"Escherichia coli O157:H7 [3]; Escherichia coli O157:H7 ATCC 700728, colistin (+) […], read-out: MIC",>64 µM
same,MIC,"Escherichia coli O157:H7 [3]; Escherichia coli, ATCC35150",> 128 µM
same,MIC,"Escherichia coli O157:H7 [3]; Escherichia coli, ATCC700728",> 128 µM
same,MIC,"Klebsiella pneumoniae; Klebsiella pneumoniae ATCC BAA 2146, colistin (+) […]",>64 µM
same,MIC,"Klebsiella pneumoniae; Klebsiella pneumoniae, BAA2146",> 128 µM
same,MIC,"Escherichia coli O157:H7 [4]; Escherichia coli O157:H7 ATCC 35150, PMBN (+) 4 μg/mL, read-out: MIC",8 µM
same,MIC,"Escherichia coli O157:H7 [4]; Escherichia coli O157:H7 ATCC 700728, PMBN (+) 4 μg/mL, read-out: MIC",>64 µM
same,MIC,"Escherichia coli O157:H7 [4]; Escherichia coli, ATCC35150",> 256 µM
same,MIC,"Escherichia coli O157:H7 [4]; Escherichia coli, ATCC700728",> 128 µM
same,MIC,Escherichia coli Δ acrAB; E.coli 1411,> 64 µM
same,MIC,"Escherichia coli Δ acrAB; E.coli 1411 SM (Δ acrAB, AcrAB efflux pump deficient)",> 64 µM
